Some test systems named below: DU-145; HOP-62; NCI-H522; SNB-19; MDA-N; HOP-92; UACC-257; SF-295; U-251; EKVX; M14; LOX IMVI; HL-60; CAKI-1; NCI-H23; SR; NCI-H460; SW-620; SN12C; OVCAR-3.
Common to all, as to assay: NCI tumour cell line growth inhibition, 48 h

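Test compounds were applied to cells in 96-well plates for 48 hours at 5 doses. GI50 is the concentration that inhibits growth by half.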 The source made the active and inactive calls. Rule as the data show it: active = GI50 up to about 1.1 µM and inactive = higher.

`O=[N+]([O-])c1oc2ccc3ccccc3c2c1CCO`: the GI50 is 3.51 µM (inactive) in the experiment with DU-145; 16.6 µM (inactive) with HOP-62; 1.63 µM (inactive) in the experiment on NCI-H522; 7.24 µM (inactive) in the experiment on SNB-19; 1.77 µM (inactive) in the experiment with MDA-N; 3.5 µM (inactive) in the experiment on HOP-92. Further, the GI50 is 1.94 µM (inactive) in the experiment on UACC-257; 1.57 µM (inactive) in the experiment on SF-295; 9.44 µM (inactive) with U-251; 0.447 µM (active) in the experiment with EKVX; 1.94 µM (inactive) in the experiment with M14; 2.14 µM (inactive) in the experiment with LOX IMVI. Besides, the GI50 in the experiment with HL-60 was 1.74 µM (inactive); in the experiment on CAKI-1, 2.25 µM (inactive); in the experiment with NCI-H23, 3.23 µM (inactive); with SR, 0.114 µM (active); with NCI-H460, 0.0479 µM (active); in the experiment on SW-620, 4.08 µM (inactive). The GI50 is 6.21 µM (inactive) in the experiment on SN12C and 12.6 µM (inactive) in the experiment on OVCAR-3.
Take `O=C(NNC(=O)c1ccccc1S)c1ccccc1S` [BIS(THIOSALICYL)HYDRAZIDE]: the GI50 in the experiment on DU-145 is 20.6 µM (inactive); in the experiment with HOP-62, 15.9 µM (inactive); with NCI-H522 it was 0.0154 µM (active); with SNB-19 it was 23.4 µM (inactive); in the experiment with MDA-N it was 18.2 µM (inactive); in the experiment on HOP-92, > 25 µM (inactive). The GI50 with UACC-257 was 13.8 µM (inactive); in the experiment on SF-295 it was 10.3 µM (inactive); in the experiment on U-251, 15.1 µM (inactive); in the experiment on EKVX, 8.34 µM (inactive); in the experiment on M14 it was 10.3 µM (inactive); in the experiment on LOX IMVI, 9.84 µM (inactive). In addition, the GI50 in the experiment with HL-60 was 8.79 µM (inactive); in the experiment with CAKI-1 it was 6.93 µM (inactive); with NCI-H23 it was 11.1 µM (inactive); in the experiment with SR, 13.5 µM (inactive); in the experiment on NCI-H460, 9.29 µM (inactive); in the experiment with SW-620, 11.6 µM (inactive). Further, the GI50 in the experiment on SN12C was 13.6 µM (inactive); in the experiment on OVCAR-3, 9.14 µM (inactive).
On to `CC(=O)NC1C(OCc2ccccc2)OC(CO)C(O)C1OC(C)C(=O)NC(C(=O)NC(CCC(=O)NCCCCNc1c2ccccc2nc2cccc([N+](=O)[O-])c12)C(N)=O)C(C)C` (stereo not given), for which the GI50 in the experiment on DU-145 is 2.55 µM (inactive); in the experiment on HOP-62 it was 3.15 µM (inactive); in the experiment on NCI-H522, 0.186 µM (active); in the experiment with SNB-19, 4.84 µM (inactive); in the experiment on MDA-N, 1.64 µM (inactive); in the experiment on HOP-92, 1.28 µM (inactive). The GI50 with UACC-257 was 3.14 µM (inactive); in the experiment with SF-295, 4.99 µM (inactive); with U-251, 3.21 µM (inactive); in the experiment on EKVX it was 2.65 µM (inactive); in the experiment with M14, 1.62 µM (inactive); in the experiment on LOX IMVI, 1.67 µM (inactive). The GI50 in the experiment with HL-60 was 1.65 µM (inactive); in the experiment on CAKI-1 it was 3.37 µM (inactive); with NCI-H23, 1.79 µM (inactive); in the experiment with SR, 0.178 µM (active); in the experiment with NCI-H460, 0.887 µM (active); with SW-620 it was 0.993 µM (active). Moreover, the GI50 was 1.71 µM (inactive) with SN12C and 2.13 µM (inactive) with OVCAR-3.
For `CCOC(=O)C1C2C1C1C(C(=O)OCC)C21` (stereo not given), the GI50 in the experiment on DU-145, with HOP-62, with NCI-H522, in the experiment on SNB-19, in the experiment on MDA-N and in the experiment with HOP-92 was > 100 µM (inactive) in each case. Moreover, the GI50 in the experiment with UACC-257 is 61 µM (inactive); with SF-295, > 100 µM (inactive); in the experiment on U-251 it was > 100 µM (inactive); in the experiment on EKVX, > 100 µM (inactive); in the experiment with M14 it was > 100 µM (inactive); with LOX IMVI it was > 100 µM (inactive). The GI50 was 63.8 µM (inactive) in the experiment on HL-60; > 100 µM (inactive) with CAKI-1; > 100 µM (inactive) in the experiment on NCI-H23; 52 µM (inactive) in the experiment on SR; > 100 µM (inactive) in the experiment on NCI-H460; > 100 µM (inactive) with SW-620. Further, the GI50 in the experiment on SN12C and in the experiment on OVCAR-3 was > 100 µM (inactive) throughout.
For the molecule `O=[N+]([O-])c1ccc2sc(/C=N/c3ccc(O)cc3)cc2c1`, the GI50 in the experiment with DU-145 is 32.8 µM (inactive); in the experiment on HOP-62, 34.7 µM (inactive); in the experiment with NCI-H522, 27.7 µM (inactive); with SNB-19, 34 µM (inactive); with MDA-N, 27.3 µM (inactive); with HOP-92 it was 32.4 µM (inactive). Also, the GI50 with UACC-257 was 23 µM (inactive); with SF-295 it was 42.3 µM (inactive); in the experiment on U-251 it was 19.8 µM (inactive); with EKVX, 48.1 µM (inactive); in the experiment on M14, 31.3 µM (inactive); in the experiment with LOX IMVI it was 23.3 µM (inactive). Further, the GI50 with HL-60 was 18.9 µM (inactive); with CAKI-1 it was 20.6 µM (inactive); with NCI-H23 it was 27.9 µM (inactive); with SR, 29.1 µM (inactive); in the experiment on NCI-H460, 46 µM (inactive); in the experiment on SW-620, 17 µM (inactive). The GI50 with SN12C was 30.1 µM (inactive); in the experiment with OVCAR-3, 15.2 µM (inactive).
Take `Cc1ccc(C(=O)O)c(/C=C2\Cc3ccc(C)cc3C2=O)c1`: the GI50 is 79.8 µM (inactive) in the experiment with DU-145; 44.2 µM (inactive) in the experiment with HOP-62; 96.8 µM (inactive) in the experiment on NCI-H522; 45.1 µM (inactive) in the experiment on SNB-19; 37.8 µM (inactive) in the experiment with MDA-N; > 100 µM (inactive) in the experiment on HOP-92. Besides, the GI50 is 78.5 µM (inactive) in the experiment on UACC-257; 38.1 µM (inactive) with SF-295; 34 µM (inactive) in the experiment with U-251; 98.9 µM (inactive) in the experiment with EKVX; > 100 µM (inactive) in the experiment on M14; 33.3 µM (inactive) in the experiment on LOX IMVI. Besides, the GI50 was 28.6 µM (inactive) with HL-60; 44.3 µM (inactive) in the experiment on CAKI-1; 75.3 µM (inactive) in the experiment with NCI-H23; 32.5 µM (inactive) with SR; 56.4 µM (inactive) in the experiment on NCI-H460; > 100 µM (inactive) in the experiment with SW-620. The GI50 was 40.6 µM (inactive) with SN12C and 31.8 µM (inactive) in the experiment on OVCAR-3.
In the case of `CC1(C)N=C(N)N=C(N)N1c1cccc(Cl)c1`, the GI50 in the experiment on DU-145 is 17.4 µM (inactive); in the experiment with HOP-62, 4.85 µM (inactive); in the experiment on NCI-H522 it was 5.87 µM (inactive); in the experiment on SNB-19, > 100 µM (inactive); in the experiment on MDA-N, 0.49 µM (active); in the experiment with HOP-92, 42.5 µM (inactive). In addition, the GI50 with UACC-257 is 5.56 µM (inactive); with SF-295, 1.83 µM (inactive); in the experiment with U-251, 1.36 µM (inactive); in the experiment on EKVX, > 100 µM (inactive); in the experiment on M14, 0.877 µM (active); in the experiment on LOX IMVI, 2.54 µM (inactive). Moreover, the GI50 in the experiment with HL-60 was > 100 µM (inactive); in the experiment on CAKI-1, > 100 µM (inactive); with NCI-H23 it was 3.22 µM (inactive); in the experiment with SR, 1.73 µM (inactive); in the experiment on NCI-H460, 1.43 µM (inactive); with SW-620, > 100 µM (inactive). Besides, the GI50 is 10.3 µM (inactive) in the experiment with SN12C and 22.4 µM (inactive) in the experiment with OVCAR-3.
For the molecule `CCS(=O)(=O)CCn1c(=O)c2c(ncn2C)n(C)c1=O`, the GI50 in the experiment with DU-145, with HOP-62, in the experiment on NCI-H522, with SNB-19, with MDA-N and in the experiment on HOP-92 was > 100 µM (inactive) each time. Also, the GI50 with UACC-257 is 45.4 µM (inactive); in the experiment with SF-295, > 100 µM (inactive); in the experiment on U-251, > 100 µM (inactive); in the experiment with EKVX it was > 100 µM (inactive); in the experiment with M14 it was > 100 µM (inactive); in the experiment with LOX IMVI, > 100 µM (inactive). Moreover, the GI50 in the experiment with HL-60, in the experiment on CAKI-1, with NCI-H23, in the experiment on SR, with NCI-H460 and with SW-620 was > 100 µM (inactive) in each case. Besides, the GI50 with SN12C and in the experiment on OVCAR-3 was > 100 µM (inactive) in each case.

Source of the values: ChEMBL document CHEMBL1201862, “PubChem BioAssay data set” (2004).
